This note sets out measurements from article PMC11879040, “Advancing systemic toxicity risk assessment: Evaluation of a NAM-based toolbox approach” (Toxicological Sciences, 2024).

One experiment concerns HepaRG cells. Description: High-throughput transcriptomics (HTTr, TempO-Seq), HepaRG, 24 h. The format is cell-based, human. The conditions noted are these: HepaRG; for pod_httr_bifrost PoD: HTTr BIFROST PoD; for podl_path_minbmd PoD: HTTr minimum pathway BMD(L). On the procedure:
(§1) HepG2, HepaRG, and MCF7 cells were treated with each compound for 24 h across a dose range of 7 concentrations and lysed using TempO-Seq lysis buffer (BioSpyder Technologies, proprietary kit, see [Middleton et al. 2022] for method details). Sequencing was performed using TempO-Seq (BioClavis) version 2 of the human whole transcriptome panel and analyzed as described previously in Middleton et al.

Experiment [1] addresses T1, Monoamine oxidase type A, MAOA (r) (Rattus norvegicus, UniProt P21396).
T1 sequence (P21396 1-526): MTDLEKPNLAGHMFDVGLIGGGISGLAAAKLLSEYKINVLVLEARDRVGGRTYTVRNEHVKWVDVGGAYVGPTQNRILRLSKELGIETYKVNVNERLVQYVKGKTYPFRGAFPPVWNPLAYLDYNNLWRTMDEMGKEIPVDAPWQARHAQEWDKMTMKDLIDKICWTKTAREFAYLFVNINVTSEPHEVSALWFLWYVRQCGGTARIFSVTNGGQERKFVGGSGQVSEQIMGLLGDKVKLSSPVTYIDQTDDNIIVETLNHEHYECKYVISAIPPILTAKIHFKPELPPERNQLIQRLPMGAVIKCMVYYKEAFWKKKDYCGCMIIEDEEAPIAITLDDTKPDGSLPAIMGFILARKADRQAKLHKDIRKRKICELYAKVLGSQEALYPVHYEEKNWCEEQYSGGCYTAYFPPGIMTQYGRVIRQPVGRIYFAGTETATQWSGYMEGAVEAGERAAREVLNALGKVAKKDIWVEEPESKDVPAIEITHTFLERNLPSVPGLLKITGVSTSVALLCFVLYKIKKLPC
Description: IPP MAOA binding (antagonist radioligand). As to conditions: IPP screening at 10 uM; control clorgyline.

The target of experiment [2] is Dopamine receptor D2, DRD2 (h) (Homo sapiens, UniProt P14416). The conditions noted are these: control 7-OH-DPAT.
The target of experiment [3] is Vasopressin V1a receptor, AVPR1A (h) (Homo sapiens, UniProt P37288). The experiment is described as follows: IPP AVPR1A binding (agonist radioligand). As to conditions: ligand/control [d(CH2)5 1,Tyr(Me)2]-AVP.
The target in experiment [4] is T2, 5-hydroxytryptamine receptor 1A, HTR1A (h) (Homo sapiens, UniProt P08908).
T2 sequence (P08908 1-422): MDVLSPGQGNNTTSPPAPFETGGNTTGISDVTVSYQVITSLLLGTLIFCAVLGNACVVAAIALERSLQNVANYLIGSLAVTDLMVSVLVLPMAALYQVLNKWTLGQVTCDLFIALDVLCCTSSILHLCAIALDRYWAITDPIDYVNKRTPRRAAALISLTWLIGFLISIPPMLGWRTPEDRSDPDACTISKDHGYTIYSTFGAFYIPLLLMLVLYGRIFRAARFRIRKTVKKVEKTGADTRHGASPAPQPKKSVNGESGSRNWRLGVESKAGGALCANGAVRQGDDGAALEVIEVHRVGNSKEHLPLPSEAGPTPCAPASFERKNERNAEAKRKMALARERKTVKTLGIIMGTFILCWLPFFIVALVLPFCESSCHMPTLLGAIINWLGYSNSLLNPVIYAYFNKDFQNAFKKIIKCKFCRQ
As to conditions: control 8-OH-DPAT.

The target of experiment [5] is Sodium-dependent serotonin transporter, SLC6A4 (h) (Homo sapiens, UniProt P31645). It is filed as binding. The conditions noted are these: control imipramine.
For experiment [6], the target named is Acetylcholinesterase, ACHE (h) (Homo sapiens, UniProt P22303). It is filed as biochemical. The conditions noted are these: control galanthamine.
Another experiment relates to MCF7 cells. Description: High-throughput transcriptomics (HTTr, TempO-Seq), MCF7, 24 h. The format is cell-based, human. As to conditions: MCF-7; for pod_httr_bifrost PoD: HTTr BIFROST PoD; for podl_path_minbmd PoD: HTTr minimum pathway BMD(L). On the procedure: as §1
The target of experiment [7] is Histamine H1 receptor, HRH1 (h) (Homo sapiens, UniProt P35367). The experiment is described as follows: IPP HRH1 binding (antagonist radioligand). As to conditions: control pyrilamine.
In experiment [8] the target is Carbonic anhydrase II, CA2 (h) (Homo sapiens, UniProt P00918). The experiment is described as follows: IPP CA2 enzymatic activity. The format is biochemical. As to conditions: 10 uM; control acetazolamide.
The test system of experiment [9] is Glutamate receptor ionotropic NMDA 1 non-selective, GRIN1 (r).
The subject of experiment [10] is Sodium channel protein type 5 subunit alpha (site 2), SCN5A (r). It is filed as binding, rat.
Experiment [11] concerns the target T3, Adenosine receptor A2a, ADORA2A (h) (Homo sapiens, UniProt P29274).
T3 construct: purchased Eurofins Cerep (SafetyScreen44-based IPP panel)
Description: IPP ADORA2A binding (agonist radioligand). The conditions noted are these: control NECA.

Experiment [12] has as its target Delta-type opioid receptor, OPRD1 (h) (Homo sapiens, UniProt P41143). As to conditions: ligand/control DPDPE.
Experiment [13] has as its target T4, Estrogen receptor, ER1 (h) (Homo sapiens, UniProt P03372).
T4 construct: purchased Eurofins Cerep (SafetyScreen44-based IPP panel)
T4 sequence (P03372 1-595): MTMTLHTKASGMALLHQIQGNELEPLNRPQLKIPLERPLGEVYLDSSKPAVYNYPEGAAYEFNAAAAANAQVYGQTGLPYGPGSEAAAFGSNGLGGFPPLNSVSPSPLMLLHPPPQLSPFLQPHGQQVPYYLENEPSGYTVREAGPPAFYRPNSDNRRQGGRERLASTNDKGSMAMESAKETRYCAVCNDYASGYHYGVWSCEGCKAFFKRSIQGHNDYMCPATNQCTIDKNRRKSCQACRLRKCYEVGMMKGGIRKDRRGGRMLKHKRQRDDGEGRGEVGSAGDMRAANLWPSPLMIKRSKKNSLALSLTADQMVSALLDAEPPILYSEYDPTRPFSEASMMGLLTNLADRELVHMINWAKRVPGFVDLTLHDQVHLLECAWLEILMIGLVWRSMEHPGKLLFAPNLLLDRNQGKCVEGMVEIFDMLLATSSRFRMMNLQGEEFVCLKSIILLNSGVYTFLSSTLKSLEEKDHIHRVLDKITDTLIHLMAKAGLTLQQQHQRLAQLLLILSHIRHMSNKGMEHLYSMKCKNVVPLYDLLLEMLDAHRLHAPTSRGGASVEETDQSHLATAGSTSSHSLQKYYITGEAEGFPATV
The experiment is described as follows: IPP ER1 coactivator recruitment (agonist). The conditions noted are these: estriol. The format is biochemical.

Setting [14] is: IPP screening at 10 uM, control CGS 19755.

Like-named read-outs stand apart in the source and are kept apart here.

Sequence of Acetylcholinesterase, ACHE (h) (P22303 32-614): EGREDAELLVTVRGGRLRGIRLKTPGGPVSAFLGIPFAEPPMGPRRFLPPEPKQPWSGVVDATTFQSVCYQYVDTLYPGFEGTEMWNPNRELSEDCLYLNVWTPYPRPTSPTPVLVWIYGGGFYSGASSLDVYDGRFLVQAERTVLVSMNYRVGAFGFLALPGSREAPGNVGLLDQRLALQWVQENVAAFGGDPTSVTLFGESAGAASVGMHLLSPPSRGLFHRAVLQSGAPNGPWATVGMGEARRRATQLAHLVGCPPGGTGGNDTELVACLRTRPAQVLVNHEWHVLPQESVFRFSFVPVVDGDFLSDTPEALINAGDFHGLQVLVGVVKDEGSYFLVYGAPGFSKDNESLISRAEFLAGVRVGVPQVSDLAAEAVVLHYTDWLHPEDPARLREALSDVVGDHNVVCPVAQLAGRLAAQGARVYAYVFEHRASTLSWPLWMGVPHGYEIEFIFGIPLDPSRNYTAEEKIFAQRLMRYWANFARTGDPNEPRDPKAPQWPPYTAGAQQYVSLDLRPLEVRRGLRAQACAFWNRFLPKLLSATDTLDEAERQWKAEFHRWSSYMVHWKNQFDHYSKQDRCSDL
Sequence of Vasopressin V1a receptor, AVPR1A (h) (P37288 whole entry): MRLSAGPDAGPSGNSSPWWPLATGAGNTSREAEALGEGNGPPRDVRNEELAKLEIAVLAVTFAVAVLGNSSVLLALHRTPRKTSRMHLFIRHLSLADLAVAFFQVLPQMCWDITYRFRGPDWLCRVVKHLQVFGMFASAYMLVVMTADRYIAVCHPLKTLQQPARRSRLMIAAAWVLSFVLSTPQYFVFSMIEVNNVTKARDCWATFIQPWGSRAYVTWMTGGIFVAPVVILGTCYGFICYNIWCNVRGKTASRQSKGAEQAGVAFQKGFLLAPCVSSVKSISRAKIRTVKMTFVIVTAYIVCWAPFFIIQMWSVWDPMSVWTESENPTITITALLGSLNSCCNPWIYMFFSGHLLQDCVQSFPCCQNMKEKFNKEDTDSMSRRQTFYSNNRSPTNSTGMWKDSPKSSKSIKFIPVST
T3 sequence (P29274 whole entry): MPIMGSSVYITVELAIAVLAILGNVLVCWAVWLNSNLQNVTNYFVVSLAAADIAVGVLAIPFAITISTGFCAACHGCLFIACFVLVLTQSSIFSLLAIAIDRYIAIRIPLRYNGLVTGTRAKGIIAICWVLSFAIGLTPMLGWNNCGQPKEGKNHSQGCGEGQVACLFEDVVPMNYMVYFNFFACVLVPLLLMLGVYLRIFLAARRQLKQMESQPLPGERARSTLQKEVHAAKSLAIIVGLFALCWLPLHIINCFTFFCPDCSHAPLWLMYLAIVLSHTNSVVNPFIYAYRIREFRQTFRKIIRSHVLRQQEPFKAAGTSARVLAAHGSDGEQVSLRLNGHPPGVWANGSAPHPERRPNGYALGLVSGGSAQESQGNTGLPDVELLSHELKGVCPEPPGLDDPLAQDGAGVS
Sequence of Delta-type opioid receptor, OPRD1 (h) (P41143 whole entry): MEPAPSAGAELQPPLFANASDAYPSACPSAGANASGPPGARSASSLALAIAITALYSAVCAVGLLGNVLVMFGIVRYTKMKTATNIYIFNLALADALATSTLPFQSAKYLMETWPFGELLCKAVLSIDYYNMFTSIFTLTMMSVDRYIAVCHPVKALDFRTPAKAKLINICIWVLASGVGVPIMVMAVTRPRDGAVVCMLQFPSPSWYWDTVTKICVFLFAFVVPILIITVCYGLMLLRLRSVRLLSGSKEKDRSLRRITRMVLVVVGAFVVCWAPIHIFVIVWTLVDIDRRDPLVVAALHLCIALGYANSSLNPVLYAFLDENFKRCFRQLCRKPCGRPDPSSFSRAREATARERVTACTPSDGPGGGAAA
Sequence of Dopamine receptor D2, DRD2 (h) (P14416 whole entry): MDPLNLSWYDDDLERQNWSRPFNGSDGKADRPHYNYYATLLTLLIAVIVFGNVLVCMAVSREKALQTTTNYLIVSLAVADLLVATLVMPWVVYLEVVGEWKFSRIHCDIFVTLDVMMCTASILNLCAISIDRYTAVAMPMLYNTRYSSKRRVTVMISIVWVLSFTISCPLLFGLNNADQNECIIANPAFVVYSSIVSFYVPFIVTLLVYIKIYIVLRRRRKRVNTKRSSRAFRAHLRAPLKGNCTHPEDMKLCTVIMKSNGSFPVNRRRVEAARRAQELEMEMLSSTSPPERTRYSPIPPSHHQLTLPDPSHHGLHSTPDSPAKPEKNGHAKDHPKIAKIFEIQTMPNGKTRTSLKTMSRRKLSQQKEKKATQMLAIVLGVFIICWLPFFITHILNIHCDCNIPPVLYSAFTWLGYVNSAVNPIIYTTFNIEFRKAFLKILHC
Sequence of Sodium-dependent serotonin transporter, SLC6A4 (h) (P31645 whole entry): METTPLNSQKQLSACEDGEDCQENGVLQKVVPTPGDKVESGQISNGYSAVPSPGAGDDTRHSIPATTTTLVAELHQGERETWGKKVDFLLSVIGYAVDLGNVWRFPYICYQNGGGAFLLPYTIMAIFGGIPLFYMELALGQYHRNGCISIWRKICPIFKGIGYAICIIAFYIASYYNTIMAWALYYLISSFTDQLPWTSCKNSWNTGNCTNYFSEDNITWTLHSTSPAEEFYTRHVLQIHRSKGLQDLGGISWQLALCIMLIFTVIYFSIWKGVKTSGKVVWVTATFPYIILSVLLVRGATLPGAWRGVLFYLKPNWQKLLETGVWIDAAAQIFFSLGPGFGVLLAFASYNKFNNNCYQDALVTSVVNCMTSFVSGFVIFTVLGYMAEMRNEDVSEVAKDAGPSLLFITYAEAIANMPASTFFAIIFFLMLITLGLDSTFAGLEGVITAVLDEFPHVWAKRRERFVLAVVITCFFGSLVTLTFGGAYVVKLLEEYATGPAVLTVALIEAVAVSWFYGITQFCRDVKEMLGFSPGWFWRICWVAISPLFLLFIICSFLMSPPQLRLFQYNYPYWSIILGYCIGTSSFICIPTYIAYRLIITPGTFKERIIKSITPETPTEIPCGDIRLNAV
Sequence of Histamine H1 receptor, HRH1 (h) (P35367 whole entry): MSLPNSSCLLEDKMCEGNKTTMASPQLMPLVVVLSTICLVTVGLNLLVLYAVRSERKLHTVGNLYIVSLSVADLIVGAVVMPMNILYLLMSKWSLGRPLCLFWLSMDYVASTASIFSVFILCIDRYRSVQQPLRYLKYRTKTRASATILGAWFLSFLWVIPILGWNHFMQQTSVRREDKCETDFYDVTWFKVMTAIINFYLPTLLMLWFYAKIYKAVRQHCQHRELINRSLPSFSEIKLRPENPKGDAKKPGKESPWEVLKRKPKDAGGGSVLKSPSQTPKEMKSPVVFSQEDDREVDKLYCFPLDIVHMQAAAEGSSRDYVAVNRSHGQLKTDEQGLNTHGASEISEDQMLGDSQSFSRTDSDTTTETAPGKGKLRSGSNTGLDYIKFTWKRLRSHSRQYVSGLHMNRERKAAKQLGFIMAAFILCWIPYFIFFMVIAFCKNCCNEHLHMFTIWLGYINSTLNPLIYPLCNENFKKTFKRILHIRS

As to `CCOP(=S)(OCC)Oc1nc(Cl)c(Cl)cc1Cl` [Chlorpyrifos, O,O-Diethyl O-(3,5,6-trichloropyridin-2-yl) phosphorothioate], the “pod_httr_bifrost PoD” value was found to be 0.07063 µM in the experiment with HepaRG cells and 0.08218 µM in the experiment on MCF7 cells. In addition, the results for the “podl_path_minbmd PoD” value in the experiment on HepaRG cells and in the experiment on MCF7 cells were 1.957 µM and 3.743 µM, respectively. Moreover, the Specific binding is on record as 3.1% in experiment [1]; 12.6% in [2] (IPP screening at 10 uM); 11.6% in [4] (IPP screening at 10 uM); -9.1% in experiment [5] (IPP screening at 10 uM); 17.6% in experiment [7] (IPP screening at 10 uM); 0.2% in [9] (setting [14]). In addition, the Specific binding in [10] was 13.4%; in [11] (IPP screening at 10 uM), 15.6%. Further, the results for the “IPP screening %, Specific binding” value in experiment [3] (10 uM) and in [12] (10 uM) were -6.8% and 2.5%, respectively. Further, the Enzymatic activity in experiment [6] (IPP screening at 10 uM) is -10.5%. Moreover, in experiment [8], the “IPP screening %, Enzymatic activity” value was 5.1%. Also, the “IPP screening %, Coactivator recruitment” value in experiment [13] (10 uM) is listed as -1.0%.
For `CC(C)(C)c1ccc(CCOc2ncnc3ccccc23)cc1` [Fenazaquin, 4-[2-(4-tert-Butylphenyl)ethoxy]quinazoline], the figures for the “pod_httr_bifrost PoD” value in the experiment with HepaRG cells and with MCF7 cells were 0.006087 µM and 0.001313 µM, respectively. Besides, the “podl_path_minbmd PoD” value with HepaRG cells is reported as 0.07466 µM; in the experiment on MCF7 cells, 0.3873 µM. Moreover, the Specific binding is 8.2% in [1]; 16.5% in [2] (IPP screening at 10 uM); -11.2% in experiment [4] (IPP screening at 10 uM); 4.6% in experiment [5] (IPP screening at 10 uM); 37.0% in experiment [7] (IPP screening at 10 uM); 0.6% in [9] (setting [14]). In addition, the Specific binding in experiment [10] (IPP screening at 10 uM, control veratridine) stood at 39.5%; in experiment [11] (IPP screening at 10 uM) it was 47.1%. Also, the figures for the “IPP screening %, Specific binding” value in experiment [3] (10 uM) and in [12] (10 uM) were -5.5% and 46.9%, respectively. Besides, the Enzymatic activity in experiment [6] (IPP screening at 10 uM) was -0.7%. In experiment [8], the “IPP screening %, Enzymatic activity” value is on record as -0.2%. The “IPP screening %, Coactivator recruitment” value in experiment [13] (10 uM) is listed as -2.0%.
Regarding `CC1(C)O[C@@H]2[C@@H](CO[C@@]3(COS(N)(=O)=O)OC(C)(C)O[C@@H]23)O1` [Topiramate, [(3aS,5aR,8aR,8bS)-2,2,7,7-Tetramethyltetrahydro-2H,3aH,7H-bis[1,3]dioxolo[4,5-b:4',5'-d]pyran-3a-yl]methyl sulfamate (non-preferred name)], the entries for the “pod_httr_bifrost PoD” value with HepaRG cells and in the experiment with MCF7 cells were 28.4144 µM and 22.6252 µM, respectively. For the same compound, the “podl_path_minbmd PoD” value in the experiment with HepaRG cells turned out to be 48.7054 µM; in the experiment on MCF7 cells, 512.687 µM. The Specific binding in [2] (IPP screening at 100 uM) is reported as 13.3%; in experiment [4] (IPP screening at 100 uM) it was 18.5%; in [5] (IPP screening at 100 uM), 3.5%; in experiment [7] (IPP screening at 100 uM) it was 5.8%; in experiment [9] (IPP screening at 100 uM, control CGS 19755) it was -5.1%; in experiment [10] (IPP screening at 100 uM, control veratridine) it was 30.2%. In addition, the Specific binding in experiment [11] (IPP screening at 100 uM) stood at 0.9%. The “IPP screening %, Specific binding” value in experiment [3] (100 uM) is on record as 7.2%; in experiment [12] (100 uM), 2.3%. Also, in [6] (IPP screening at 100 uM), the Enzymatic activity is -0.1%. Further, in experiment [13] (100 uM, * denotes assay interference (2-Amino-6-chloro-4-nitrophenol, HC Red 3)), the “IPP screening %, Coactivator recruitment” value is reported as -1.0%.
Regarding “(4S,4aR,5S,5aR,6S,12aS)-4-(Dimethylamino)-3,5,6,10,12,12a-hexahydroxy-6-methyl-1,11-dioxo-1,4,4a,5,5a,6,11,12a-octahydrotetracene-2-carboxamide--hydrogen chloride (1/1) [Oxytetracycline hydrochloride]”, the Specific binding in experiment [1] was found to be 0.8%; in experiment [2] (IPP screening at 10 uM), 22.7%; in experiment [4] (IPP screening at 10 uM), 1.5%; in experiment [9] (setting [14]), 2.8%; in experiment [10], 10.5%; in [11] (IPP screening at 10 uM) it was 7.5%. Also, the “IPP screening %, Specific binding” value is 1.6% in experiment [3] (10 uM) and -5.6% in [12] (10 uM). In addition, in experiment [8], the “IPP screening %, Enzymatic activity” value is recorded as 0.7%.
With “mixture of 2- and 3-tert-butyl-4-methoxyphenol [Butylated Hydroxyanisole]”, the Specific binding is given as 6.7% in experiment [1]; -16.2% in [2] (IPP screening at 10 uM); -7.7% in [4] (IPP screening at 10 uM); 2.8% in experiment [5] (IPP screening at 10 uM); -2.1% in experiment [7] (IPP screening at 10 uM); 2.2% in [9]. Besides, the Specific binding in [10] is 16.8%; in [11] (IPP screening at 10 uM), 2.8%. In addition, the “IPP screening %, Specific binding” value in experiment [3] (10 uM) is reported as 15.2%; in experiment [12] (10 uM) it was -2.3%. For the same compound, the Enzymatic activity in experiment [6] (IPP screening at 10 uM) was 5.9%. Besides, in [8], the “IPP screening %, Enzymatic activity” value is on record as -0.4%.
